The values below come from patent US8617563B2, “Antichlamydial agents” (Duke University, priority 2011, dated 2013).

For one assay, the system named is C. trachomatis LGV-L2. As to the kind of experiment: Generation of infectious particles (IFU) and inclusion growth in infected HeLa cells. The class given is cell-based. Here is the method: FIG. 9 depicts (A) CPAF inhibitory peptides block the generation of Chlamydia infectious particles. L2-infected HeLa cells were treated at 12 hpi with increasing concentration of peptides. EBs were harvested at 30 hpi and inclusion-forming units (IFU) were quantified on fresh cell monolayers. (B-D) CPAF activity is required to maintain inclusion integrity. The integrity of the inclusion was determined by assessing the immunolocalization of the inclusion membrane marker IncA (red) and Chlamydia (green) (B) and by transmission electron microscopy (C). […] (D) The percentage of vimentin-positive inclusions was determined by IF in infected cells treated with SEQ ID NO:7 and SEQ ID NO:11 (12 hpi) peptides at 24 hpi. (E) Activation of inflammatory cytokines upon inhibition of CPAF activity. Levels of IL-8 supernatants from Chlamydia infected cells treated with peptides as in (B-D) were determined at 24 hpi by ELISA.
Cells were infected with an MOI of 1 and treated with CPAF inhibitor (SEQ ID NO:7) or control (SEQ ID NO:11) peptides at 12 hpi, fixed at 24 hpi and analyzed by IF with anti-L2 polyclonal antisera. Inclusion size was determined by measuring the inclusion diameter in μm by confocal microscopy of 50 infected cells. The number of cells with fragmented inclusions was determined by counting the number of infected cells out of 50 with more than one inclusion. […]

Assay [1] concerns mouse lung fibroblasts infected with C. trachomatis and C. muridarum. As to the kind of experiment: Cell death in infected mouse lung fibroblasts from ICE−/− and ASC−/− knockout mice. The class given is cell-based. The following applies: knockout cells, unlike wild-type counterparts. Here is the method: FIG. 12 depicts (A) low-magnification view of C. trachomatis LGV-L2 infected HeLa monolayers (30 h) treated with SEQ ID NO:7 or SEQ ID NO:11 peptides. (B) The frequency of condensed nuclei in treated cells is dependent on peptide concentration and Chlamydia infection. (C-D) Toxicity of CPAF inhibitors to Chlamydia-infected cells is observed in non-myeloid cells including human embryonic kidney cells HEK293 (C) and mouse embryo fibroblasts (D). […] (F-G) Cell death induced by anti-CPAF peptides requires Caspase-1 activation. HeLa cells infected with C. muridarum were treated with Ac-YVAD-CMK at 2 hpi, SEQ ID NO:7 peptide or SEQ ID NO:11 control peptide at 12 hpi and the percentage of infected cells with condensed nuclei was assessed at 48 hpi (F). […] The percentage of infected cells with condensed nuclei was assessed at 48 hpi (G). […] Cell death in infected and uninfected cells treated with CPAF inhibitory peptides or control peptides was determined by counting the number of condensed nuclei of ˜1000 cells.
FIG. 13 depicts (A) that Caspase-1 inhibitors block Chlamydia-mediated cell death. […] Cells were fixed and the percentage of cells with condensed nuclei determined at 24 hpi. […] Infected cells were labeled with a cell-permeable fluorescent substrate of Caspase-1 and treated with inhibitory peptides, and Caspase-1 activity was monitored by flow cytometry. […]

Where no end group is shown, it is not given here.

In the case of “SLFYSPMVPHFWAELRNHYATSGLKRRRRRRRRR-NH2 [SEQ ID NO:7]”, in the assay with C. trachomatis LGV-L2 (L2-infected HeLa, peptide at 12 hpi, EBs harvested 30 hpi), the “Yields of EBs (IFU)” value is “significantly lowered yields of EBs”. Also, the Inclusion growth result in the assay on C. trachomatis LGV-L2 (MOI 1, peptide at 12 hpi, fixed 24 hpi) is on record as “stunted inclusion growth”. The “Host cell death in infected ICE−/− and ASC−/− mouse lung fibroblasts” value in assay [1] was “resistant to host cell death”.
